Active and inactive are the calls of the source.
How the values were obtained:
[1] = HEp-2 cell cytotoxicity, dose response, cytotoxicity control for RSV inhibitor project, HTS (AID 2410); format: functional; settings: human respiratory syncytial virus
Vero = test: cells; format: functional, cell-based; settings: Chlorocebus sabaeus
[2] = molecular target: 72 kDa type IV collagenase (Homo sapiens, UniProt P08253); test: Dose Response validation of uHTS RPN11 inhibitor hits using a MMP-2 Fluorescence assay.; format: functional
[3] = molecular target: 26S proteasome non-ATPase regulatory subunit 14 (Homo sapiens, UniProt O00487); test: inhibition of proteasome subunit RPN11 – biochemical, fluorescence polarization, uHTS hits, confirmation (AID 602368); format: functional
Insulin-degrading enzyme = molecular target: T1, Insulin-degrading enzyme (Homo sapiens, UniProt P14735); test: Dose Response: Fluorescence polarization-based cell-based high throughput dose response assay for inhibitors of insulin-degrading enzyme (IDE). [Related pubchem assays: 434962 (Primary screen (IDE inhibitors in singlicate)), 449730 (Counterscreen (Cytotoxicity in triplicate)), 435028 (Confirmation (IDE inhibitors in triplicate)), 434984 (Summary …; format: functional
T1 sequence (P14735 whole entry): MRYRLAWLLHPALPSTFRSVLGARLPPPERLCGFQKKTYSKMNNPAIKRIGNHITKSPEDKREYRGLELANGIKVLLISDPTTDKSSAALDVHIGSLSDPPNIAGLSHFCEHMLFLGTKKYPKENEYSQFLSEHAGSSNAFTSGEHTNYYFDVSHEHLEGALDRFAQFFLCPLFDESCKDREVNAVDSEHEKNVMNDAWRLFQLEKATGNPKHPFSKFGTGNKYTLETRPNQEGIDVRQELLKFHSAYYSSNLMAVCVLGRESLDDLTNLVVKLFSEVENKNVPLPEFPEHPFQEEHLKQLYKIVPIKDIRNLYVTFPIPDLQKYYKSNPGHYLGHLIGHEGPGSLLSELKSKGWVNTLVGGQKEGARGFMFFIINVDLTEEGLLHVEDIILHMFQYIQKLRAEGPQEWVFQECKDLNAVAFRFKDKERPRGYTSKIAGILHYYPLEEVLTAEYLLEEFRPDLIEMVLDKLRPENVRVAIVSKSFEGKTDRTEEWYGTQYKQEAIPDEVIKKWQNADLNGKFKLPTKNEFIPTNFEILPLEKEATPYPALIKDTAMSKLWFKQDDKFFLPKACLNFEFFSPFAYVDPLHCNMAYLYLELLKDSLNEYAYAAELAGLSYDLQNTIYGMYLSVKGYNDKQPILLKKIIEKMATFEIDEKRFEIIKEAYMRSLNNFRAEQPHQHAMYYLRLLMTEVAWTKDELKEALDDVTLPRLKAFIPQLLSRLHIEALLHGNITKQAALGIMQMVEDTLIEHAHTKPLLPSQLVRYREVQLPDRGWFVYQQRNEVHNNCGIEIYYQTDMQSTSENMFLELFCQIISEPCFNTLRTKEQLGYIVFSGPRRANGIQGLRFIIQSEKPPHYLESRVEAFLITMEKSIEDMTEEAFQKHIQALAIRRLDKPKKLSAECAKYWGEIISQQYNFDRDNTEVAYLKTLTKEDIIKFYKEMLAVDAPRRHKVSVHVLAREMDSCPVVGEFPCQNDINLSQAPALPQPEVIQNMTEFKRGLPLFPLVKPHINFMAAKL

Prothrombin = Prothrombin (Bos taurus, UniProt P00735); test: thrombin inhibition, dose response, biochemical, fluorescence polarization, uHTS hits (AID 602369); format: functional
[4] = Counterscreen for IDE inhibitors: Luminescence-based cell-based high throughput dose response assay to identify compounds that are cytotoxic to HEK cells. [Related pubchem assays: 434962 (Primary screen (IDE inhibitors in singlicate)), 449730 (Counterscreen (Cytotoxicity in triplicate)), 435028 (Confirmation (IDE inhibitors in triplicate)) …; format: functional; settings: HEK293
[5] = molecular target: Glyceraldehyde-3-phosphate dehydrogenase (Homo sapiens, UniProt P04406)
[6] = molecular target: Heat shock cognate 71 kDa protein (Homo sapiens, UniProt P11142); test: In Vitro Hsc70 Dose Response Fluorescence Polarization Assay. [Related pubchem assays: 1072 ]
[7] = molecular target: Heat shock 70 kDa protein 1A (Homo sapiens, UniProt P0DMV8); test: Hsp70 inhibitors, SAR follow-up, biochemical, fluorescence polarization (AID 1072)
Fatty acid synthase [8] = molecular target: T2, Fatty acid synthase (Homo sapiens, UniProt P49327); test: FAS thioesterase domain inhibitors, dose response, biochemical, endpoint fluorescence intensity, uHTS hits (AID 624327); format: functional;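 also: fluorescence from hydrolysis of an O-methyl fluorescein acyl ester substrate by the enzyme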
Fatty acid synthase [9] = molecular target: T2, Fatty acid synthase; test: FAS thioesterase domain inhibitors, dose response, biochemical, kinetic fluorescence intensity (AID 624326); format: functional;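 also: rate of fluorescence rise from hydrolysis of a fluorogenic O-methyl fluorescein ester substrate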
Cytochrome P450 2C9 = Cytochrome P450 2C9 (Homo sapiens, UniProt P11712)
[10] = molecular target: Luciferin 4-monooxygenase (Photinus pyralis, UniProt P08659); test: Counter Screen for Luciferase-based Assay Positives. [Related pubchem assays: 620, 618, 411 ]
Bcl-2-like protein 10 = molecular target: T3, Bcl-2-like protein 10 (Homo sapiens, UniProt Q9HD36); test: displacers of TR3 peptide from Bcl-B, primary screen, selectivity assay for Bfl-1 inhibitor project, biochemical, fluorescence polarization, FITC-TR3 peptide (AID 748);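 also: fluorescence polarization from a fluorescein-labelled TR3 peptide binding purified Bcl-B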
T3 sequence (Q9HD36 whole entry): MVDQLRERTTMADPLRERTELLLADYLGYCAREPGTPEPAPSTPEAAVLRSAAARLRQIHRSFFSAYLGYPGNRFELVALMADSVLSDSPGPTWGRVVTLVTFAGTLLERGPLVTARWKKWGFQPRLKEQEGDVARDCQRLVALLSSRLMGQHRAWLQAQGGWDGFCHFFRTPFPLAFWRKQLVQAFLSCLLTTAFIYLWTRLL

[11] = inhibitors of intracellular T. cruzi replication, confirmation, NIH3T3 host cells, beta-gal luminescence (AID 2044); format: functional, cell-based;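 also: intracellular parasites grown in NIH/3T3 mouse fibroblasts as host cells; luminescent beta-galactosidase reporter signal from transgenic T. cruzi replicating inside host cells; inhibitors lower the luminescence signal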
[12] = molecular target: T4, DNA repair protein RAD52 homolog (Homo sapiens, UniProt P43351); format: functional, biochemical
T4 sequence (P43351 whole entry): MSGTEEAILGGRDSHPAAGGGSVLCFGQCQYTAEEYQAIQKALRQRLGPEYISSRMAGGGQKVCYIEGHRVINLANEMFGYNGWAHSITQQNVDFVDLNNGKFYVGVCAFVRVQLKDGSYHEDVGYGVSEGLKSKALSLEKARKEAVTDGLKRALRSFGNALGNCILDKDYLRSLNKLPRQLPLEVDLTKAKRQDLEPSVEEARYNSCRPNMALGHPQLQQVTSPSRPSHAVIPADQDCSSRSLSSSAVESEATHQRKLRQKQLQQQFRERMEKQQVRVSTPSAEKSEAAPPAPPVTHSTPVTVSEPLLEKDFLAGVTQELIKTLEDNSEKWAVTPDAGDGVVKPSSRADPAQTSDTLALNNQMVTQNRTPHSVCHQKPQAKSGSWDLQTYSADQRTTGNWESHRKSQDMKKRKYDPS

INS1 = test: beta cell apoptosis inhibitors, cytokine rescue, dose response, luminescence, retest (AID 449756); format: functional, cell-based; settings: Rattus norvegicus, INS1;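 also: cell death triggered by IL-1 beta plus TNF-alpha plus IFN-gamma mixture; protective hits raise ATP signal compared with cytokine alone wells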
HT-1080 = test: cytotoxicity in HT1080 fibrosarcoma cells, cell-based, fluorescence readout (AID 620); format: functional; settings: Homo sapiens
[13] = Luminescence Cell-Based Dose Response HTS to Identify Activators of Luciferase Translation or Activity in H4 […] Cells. [Related pubchem assays: 1829 (Project Summary), 1814 (Primary HTS)]; format: functional
[14] = molecular target: T5, DNA repair and recombination protein RAD54-like (Homo sapiens, UniProt Q92698); test: inhibitors of human RAD54 branch migration, confirmation, biochemical, fluorescence, cherry-picked samples, dose series (AID 651657); format: functional
T5 sequence (Q92698 whole entry): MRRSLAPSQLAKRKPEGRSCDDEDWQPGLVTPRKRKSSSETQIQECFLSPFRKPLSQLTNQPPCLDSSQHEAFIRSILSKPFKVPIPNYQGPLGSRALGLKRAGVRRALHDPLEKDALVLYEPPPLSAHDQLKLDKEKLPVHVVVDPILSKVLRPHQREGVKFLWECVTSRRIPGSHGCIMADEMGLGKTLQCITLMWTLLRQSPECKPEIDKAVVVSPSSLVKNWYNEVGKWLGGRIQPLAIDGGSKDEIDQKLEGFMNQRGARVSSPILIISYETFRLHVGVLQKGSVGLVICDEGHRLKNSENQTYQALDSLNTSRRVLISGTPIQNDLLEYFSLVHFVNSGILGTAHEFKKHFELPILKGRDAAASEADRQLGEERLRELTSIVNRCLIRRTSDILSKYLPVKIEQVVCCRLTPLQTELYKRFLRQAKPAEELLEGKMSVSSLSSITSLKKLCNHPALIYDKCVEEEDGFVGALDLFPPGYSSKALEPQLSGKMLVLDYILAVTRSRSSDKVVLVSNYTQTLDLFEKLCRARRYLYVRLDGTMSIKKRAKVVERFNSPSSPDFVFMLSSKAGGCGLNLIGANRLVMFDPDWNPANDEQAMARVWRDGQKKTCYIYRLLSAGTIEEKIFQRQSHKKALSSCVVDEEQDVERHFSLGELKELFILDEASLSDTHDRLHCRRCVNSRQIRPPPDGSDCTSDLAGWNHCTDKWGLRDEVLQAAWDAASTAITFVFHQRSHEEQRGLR

H4 = test: Luminescence Cell-Based Dose Response HTS to Identify Activators of 5'UTR Stem-Loop Driven Prion Protein mRNA Translation in H4 Neuroglioblastoma Cells. [Related pubchem assays: 1829 (Project Summary), 1814 (Primary HTS)]; format: functional; settings: Homo sapiens
[15] = cytotoxicity toward NIH3T3 fibroblasts, dose response, counter-screen, cell-based, ATP luminescence, mouse fibroblasts (AID 2010); format: functional;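 also: cells exposed to compound for about 90 hours before reading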
[16] = molecular target: T6, Short transient receptor potential channel 4 (Mus musculus, UniProt Q9QUQ5); test: mouse TRPC4 channel inhibitors, dose response, cell-based, HEK293 TRPC4/mu-opioid, Fluo-4 calcium (AID 434942); format: functional;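 also: potency of inhibitors blocking the TRPC4 calcium response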
T6 sequence (Q9QUQ5 whole entry): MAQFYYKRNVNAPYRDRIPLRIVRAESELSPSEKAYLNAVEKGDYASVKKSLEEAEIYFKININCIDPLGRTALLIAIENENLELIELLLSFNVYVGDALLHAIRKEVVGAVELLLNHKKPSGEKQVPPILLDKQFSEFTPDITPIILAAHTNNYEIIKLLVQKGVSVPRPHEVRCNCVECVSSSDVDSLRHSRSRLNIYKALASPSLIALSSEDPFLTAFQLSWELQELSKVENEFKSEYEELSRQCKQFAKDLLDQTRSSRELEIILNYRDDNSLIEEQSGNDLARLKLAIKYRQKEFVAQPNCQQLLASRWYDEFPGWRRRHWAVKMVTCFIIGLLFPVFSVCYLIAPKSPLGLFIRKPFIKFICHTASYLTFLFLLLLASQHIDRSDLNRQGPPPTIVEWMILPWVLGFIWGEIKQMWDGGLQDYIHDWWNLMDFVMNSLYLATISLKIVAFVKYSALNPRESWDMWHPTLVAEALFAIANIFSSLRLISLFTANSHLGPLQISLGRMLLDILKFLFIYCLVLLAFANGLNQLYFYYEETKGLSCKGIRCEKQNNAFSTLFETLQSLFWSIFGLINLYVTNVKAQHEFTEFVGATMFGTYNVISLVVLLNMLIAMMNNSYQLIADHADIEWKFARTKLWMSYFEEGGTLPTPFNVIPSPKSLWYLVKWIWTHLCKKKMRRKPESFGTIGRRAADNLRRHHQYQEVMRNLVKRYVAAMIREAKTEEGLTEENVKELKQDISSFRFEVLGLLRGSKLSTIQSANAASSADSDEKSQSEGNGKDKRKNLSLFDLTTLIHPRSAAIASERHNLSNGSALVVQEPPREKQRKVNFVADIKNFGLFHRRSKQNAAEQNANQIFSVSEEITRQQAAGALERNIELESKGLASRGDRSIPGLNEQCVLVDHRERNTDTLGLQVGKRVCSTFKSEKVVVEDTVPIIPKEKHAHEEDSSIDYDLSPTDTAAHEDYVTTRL

Large T antigen = Large T antigen (Simian virus 40, UniProt P03070); format: functional, Betapolyomavirus macacae;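 also: Confirmatory-stage PubChem screen for compounds that inhibit SV40 T antigen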
[17] = Luminescence Cell-Based Dose Confirmation HTS to Identify Activators of 5'UTR Stem-Loop Driven Alpha-Synuclein mRNA Translation in H4 Neuroglioblastoma Cells. [Related pubchem assays: 1829 (Project Summary), 1814 (Primary HTS)]; format: functional

Heat shock 70 kDa protein 1A, sequence (P0DMV8 whole entry, the tested form may be a part): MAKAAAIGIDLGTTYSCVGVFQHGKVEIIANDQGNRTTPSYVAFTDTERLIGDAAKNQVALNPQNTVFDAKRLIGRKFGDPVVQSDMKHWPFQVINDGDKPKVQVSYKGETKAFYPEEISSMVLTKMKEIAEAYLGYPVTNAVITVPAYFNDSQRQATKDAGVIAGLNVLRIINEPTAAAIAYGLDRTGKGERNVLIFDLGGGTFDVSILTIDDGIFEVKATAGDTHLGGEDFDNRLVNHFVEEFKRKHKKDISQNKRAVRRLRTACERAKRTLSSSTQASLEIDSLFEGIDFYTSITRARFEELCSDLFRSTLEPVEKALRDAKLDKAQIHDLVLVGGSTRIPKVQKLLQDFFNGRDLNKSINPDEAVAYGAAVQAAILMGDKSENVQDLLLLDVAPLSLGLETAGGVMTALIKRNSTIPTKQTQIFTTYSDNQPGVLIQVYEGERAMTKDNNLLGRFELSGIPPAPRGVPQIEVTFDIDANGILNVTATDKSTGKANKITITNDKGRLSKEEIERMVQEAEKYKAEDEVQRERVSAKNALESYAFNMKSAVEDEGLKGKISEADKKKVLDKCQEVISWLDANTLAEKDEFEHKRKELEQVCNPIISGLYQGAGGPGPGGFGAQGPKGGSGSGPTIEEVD
Heat shock cognate 71 kDa protein, sequence (P11142 whole entry): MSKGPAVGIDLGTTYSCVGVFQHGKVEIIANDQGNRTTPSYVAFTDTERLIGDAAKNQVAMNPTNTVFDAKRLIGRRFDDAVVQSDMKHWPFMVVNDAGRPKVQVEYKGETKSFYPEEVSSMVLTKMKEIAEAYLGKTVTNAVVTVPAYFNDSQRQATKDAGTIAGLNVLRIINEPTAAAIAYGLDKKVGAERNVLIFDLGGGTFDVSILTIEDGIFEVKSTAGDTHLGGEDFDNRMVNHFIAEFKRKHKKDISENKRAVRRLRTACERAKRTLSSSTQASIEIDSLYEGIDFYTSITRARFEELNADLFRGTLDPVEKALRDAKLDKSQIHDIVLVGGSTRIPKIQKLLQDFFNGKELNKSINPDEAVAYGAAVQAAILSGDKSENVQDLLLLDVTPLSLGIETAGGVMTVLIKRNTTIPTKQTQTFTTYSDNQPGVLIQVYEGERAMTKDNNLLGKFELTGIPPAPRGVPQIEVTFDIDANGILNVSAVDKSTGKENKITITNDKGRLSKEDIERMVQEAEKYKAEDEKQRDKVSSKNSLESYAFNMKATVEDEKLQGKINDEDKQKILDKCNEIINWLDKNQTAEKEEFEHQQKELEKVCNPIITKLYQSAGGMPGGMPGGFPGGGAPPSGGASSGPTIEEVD
T2 sequence (P49327 whole entry, the tested form may be a part): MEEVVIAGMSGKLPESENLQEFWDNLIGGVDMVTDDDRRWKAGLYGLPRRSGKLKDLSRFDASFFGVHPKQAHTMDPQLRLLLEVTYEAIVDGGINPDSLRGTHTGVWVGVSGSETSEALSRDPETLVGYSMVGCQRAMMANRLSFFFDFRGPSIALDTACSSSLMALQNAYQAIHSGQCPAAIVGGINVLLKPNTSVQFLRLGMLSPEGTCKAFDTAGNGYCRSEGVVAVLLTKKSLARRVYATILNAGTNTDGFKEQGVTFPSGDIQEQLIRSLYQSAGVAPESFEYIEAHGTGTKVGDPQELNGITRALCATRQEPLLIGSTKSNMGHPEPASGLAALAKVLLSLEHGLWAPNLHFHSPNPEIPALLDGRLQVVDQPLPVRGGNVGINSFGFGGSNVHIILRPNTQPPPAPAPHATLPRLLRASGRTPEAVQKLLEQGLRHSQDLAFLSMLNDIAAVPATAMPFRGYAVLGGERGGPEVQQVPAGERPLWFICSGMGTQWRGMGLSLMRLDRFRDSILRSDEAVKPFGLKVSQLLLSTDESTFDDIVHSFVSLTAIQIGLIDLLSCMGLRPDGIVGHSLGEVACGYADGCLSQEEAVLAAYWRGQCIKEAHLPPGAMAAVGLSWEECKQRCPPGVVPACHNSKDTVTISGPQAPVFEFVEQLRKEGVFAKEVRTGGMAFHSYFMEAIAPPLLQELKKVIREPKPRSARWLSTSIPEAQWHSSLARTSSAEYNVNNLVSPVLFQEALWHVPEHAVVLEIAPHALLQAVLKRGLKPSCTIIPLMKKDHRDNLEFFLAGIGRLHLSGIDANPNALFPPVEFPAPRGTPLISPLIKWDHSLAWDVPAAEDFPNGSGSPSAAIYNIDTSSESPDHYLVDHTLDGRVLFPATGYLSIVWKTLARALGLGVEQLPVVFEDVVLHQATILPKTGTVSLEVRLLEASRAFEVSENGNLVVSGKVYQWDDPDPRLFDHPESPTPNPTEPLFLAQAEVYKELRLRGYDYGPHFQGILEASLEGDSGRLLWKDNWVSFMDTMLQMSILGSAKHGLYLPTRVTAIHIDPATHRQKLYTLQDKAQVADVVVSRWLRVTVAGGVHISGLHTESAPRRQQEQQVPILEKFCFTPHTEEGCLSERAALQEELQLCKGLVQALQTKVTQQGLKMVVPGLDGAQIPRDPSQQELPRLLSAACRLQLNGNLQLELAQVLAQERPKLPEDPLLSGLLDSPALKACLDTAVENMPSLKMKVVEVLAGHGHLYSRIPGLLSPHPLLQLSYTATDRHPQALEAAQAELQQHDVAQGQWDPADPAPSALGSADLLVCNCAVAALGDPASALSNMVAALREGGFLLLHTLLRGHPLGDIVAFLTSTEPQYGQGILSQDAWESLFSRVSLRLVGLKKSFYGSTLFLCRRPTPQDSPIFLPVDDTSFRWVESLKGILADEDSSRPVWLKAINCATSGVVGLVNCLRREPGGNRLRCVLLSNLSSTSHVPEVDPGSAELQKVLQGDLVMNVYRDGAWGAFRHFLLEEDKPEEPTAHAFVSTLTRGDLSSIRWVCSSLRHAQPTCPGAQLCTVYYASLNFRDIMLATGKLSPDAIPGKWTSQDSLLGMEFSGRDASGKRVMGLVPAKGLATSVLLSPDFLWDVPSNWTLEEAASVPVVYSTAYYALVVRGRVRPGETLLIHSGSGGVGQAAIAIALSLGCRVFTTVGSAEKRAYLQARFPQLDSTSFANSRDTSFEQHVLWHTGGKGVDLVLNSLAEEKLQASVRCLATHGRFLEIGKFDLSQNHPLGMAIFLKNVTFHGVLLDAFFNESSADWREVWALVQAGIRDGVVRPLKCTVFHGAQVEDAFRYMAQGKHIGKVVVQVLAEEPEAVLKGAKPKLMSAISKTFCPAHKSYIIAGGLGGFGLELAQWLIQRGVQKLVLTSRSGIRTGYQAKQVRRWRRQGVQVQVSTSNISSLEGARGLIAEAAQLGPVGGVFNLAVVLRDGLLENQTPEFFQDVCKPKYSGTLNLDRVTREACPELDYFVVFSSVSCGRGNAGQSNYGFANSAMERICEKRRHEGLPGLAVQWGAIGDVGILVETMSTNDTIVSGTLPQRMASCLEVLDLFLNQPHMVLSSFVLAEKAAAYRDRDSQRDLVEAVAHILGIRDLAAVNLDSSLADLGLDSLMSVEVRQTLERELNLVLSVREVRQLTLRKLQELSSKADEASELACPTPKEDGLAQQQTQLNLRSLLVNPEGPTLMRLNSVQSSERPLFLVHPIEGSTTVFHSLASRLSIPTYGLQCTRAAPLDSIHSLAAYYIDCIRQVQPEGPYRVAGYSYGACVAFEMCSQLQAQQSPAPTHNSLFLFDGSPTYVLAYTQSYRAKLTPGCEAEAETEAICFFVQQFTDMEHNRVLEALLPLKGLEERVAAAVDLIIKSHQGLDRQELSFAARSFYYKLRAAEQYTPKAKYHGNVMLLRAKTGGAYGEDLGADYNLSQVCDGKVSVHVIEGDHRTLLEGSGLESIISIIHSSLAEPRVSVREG
26S proteasome non-ATPase regulatory subunit 14, sequence (O00487 whole entry): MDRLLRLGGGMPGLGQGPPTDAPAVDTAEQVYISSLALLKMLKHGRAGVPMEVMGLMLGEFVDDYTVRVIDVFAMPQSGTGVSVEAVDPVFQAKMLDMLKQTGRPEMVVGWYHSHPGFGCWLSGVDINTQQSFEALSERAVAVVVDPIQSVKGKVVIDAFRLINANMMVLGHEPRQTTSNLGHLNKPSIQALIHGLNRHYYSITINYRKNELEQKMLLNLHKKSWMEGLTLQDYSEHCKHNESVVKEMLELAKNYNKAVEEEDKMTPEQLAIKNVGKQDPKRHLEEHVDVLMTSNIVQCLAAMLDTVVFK
72 kDa type IV collagenase, sequence (P08253 whole entry): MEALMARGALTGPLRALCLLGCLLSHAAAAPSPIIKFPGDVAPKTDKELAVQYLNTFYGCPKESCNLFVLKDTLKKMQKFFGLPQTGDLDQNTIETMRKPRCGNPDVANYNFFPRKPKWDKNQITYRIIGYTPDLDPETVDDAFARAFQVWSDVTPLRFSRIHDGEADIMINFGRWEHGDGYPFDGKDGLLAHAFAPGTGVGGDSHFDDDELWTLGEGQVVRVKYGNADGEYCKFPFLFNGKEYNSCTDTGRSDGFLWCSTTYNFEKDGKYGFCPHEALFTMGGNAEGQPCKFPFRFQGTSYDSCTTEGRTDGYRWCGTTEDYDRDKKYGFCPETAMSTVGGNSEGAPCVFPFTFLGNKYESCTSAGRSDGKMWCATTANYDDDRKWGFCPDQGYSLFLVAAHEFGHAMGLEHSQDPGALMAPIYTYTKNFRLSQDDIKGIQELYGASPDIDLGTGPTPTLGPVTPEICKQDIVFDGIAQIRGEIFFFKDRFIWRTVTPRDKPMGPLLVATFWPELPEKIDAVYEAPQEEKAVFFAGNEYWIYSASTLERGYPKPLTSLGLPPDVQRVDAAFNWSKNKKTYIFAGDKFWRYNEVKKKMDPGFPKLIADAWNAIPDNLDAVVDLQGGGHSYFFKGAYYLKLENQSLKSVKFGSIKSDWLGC
Glyceraldehyde-3-phosphate dehydrogenase, sequence (P04406 whole entry): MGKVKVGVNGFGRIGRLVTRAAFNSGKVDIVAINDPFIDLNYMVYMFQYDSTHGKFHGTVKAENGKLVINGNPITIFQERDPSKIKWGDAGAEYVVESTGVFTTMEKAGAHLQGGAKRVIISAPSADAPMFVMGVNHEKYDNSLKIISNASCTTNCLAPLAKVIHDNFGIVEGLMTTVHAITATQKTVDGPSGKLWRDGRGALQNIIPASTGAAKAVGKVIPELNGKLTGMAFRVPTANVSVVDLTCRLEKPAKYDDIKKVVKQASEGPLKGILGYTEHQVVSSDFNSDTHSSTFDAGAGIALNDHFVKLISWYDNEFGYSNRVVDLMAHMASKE

Cc1ccc(C(=O)Nc2ccccc2SCC2CSc3nc4ccccc4c(=O)n32)cc1 (stereo unspecified)
IC50 (cells): 11.4 µM (active) | CC50 [1]: 27.7 µM (active) | IC50 (Vero): 10.4 µM (active)

COc1ccc(/N=C\c2oc3ccc4ccccc4c3c2O)cc1
IC50 [2]: > 100 µM (inactive) | IC50 [3]: 10 µM (active) | IC50 (Insulin-degrading enzyme): > 55.9 µM (not active) | IC50 (Prothrombin): 3.81 µM (active) | IC50 [4]: > 55.7 µM (not active)

O=C(O)/C=C/c1c2ccc(=O)c(O)c-2oc2c(O)c(O)ccc12
IC50 [5]: 15.8 µM (active) | IC50 [6]: 2.73 µM (active) | IC50 [7]: 0.332 µM (active)

Cc1ccc2cc3cc(C(=O)N4CCCCC4C)oc3nc2c1 (stereo unspecified)
IC50 (Fatty acid synthase [8]): 2.28 µM (active) | IC50 (Fatty acid synthase [9]): 4.44 µM (active) | IC50 (cells): 21.4 µM (active) | AC50 (Cytochrome P450 2C9): inconclusive | CC50 [1]: > 50 µM (active)

Oc1ccc(Nc2nc(N3CCCC3)c3ccccc3n2)cc1
EC50 [10]: < 0.2 µM (active) | IC50 (Bcl-2-like protein 10): 43.9 µM (active) | EC50 [11]: 2.11 µM (active) | AC50 [12]: 13.3 µM (active) | AC50 (INS1): 7.85 µM (active) | EC50 (HT-1080): 25.7 µM (active) | EC50 [13]: 12.9 µM (active) | AC50 [14]: 6.91 µM (active) | EC50 (H4): > 120 µM (not active) | EC50 [15]: 9.1 µM (active) | EC50 [16]: 5.96 µM (active) | IC50 (Large T antigen): 4.72 µM (active) | EC50 [17]: > 120 µM (not active)

O=C(O)CCc1c2ccc(=O)c(O)c-2oc2c(O)c(O)ccc12
IC50 [6]: 3.98 µM (active) | IC50 [7]: 0.578 µM (active)

Source: ChEMBL document CHEMBL1201862, “PubChem BioAssay data set” (2004)
